Test results published in patent US20060069132A1, “Azolecarboxamide herbicides” (priority 2004, published 2006).

Assays:
velvetleaf [1] = test: Test B pre-/postemergence herbicide test; assay type: in vivo, Abutilon theophrasti; conditions: for Velvetleaf plant response rating: postemergence, scale 0 (no effect) to 100 (complete control)
Procedure, shortened: (§1)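 Pre: seeds sown, then sprayed. Post: 1–4-leaf plants (2–18 cm) sprayed at the same time. Paddy: flooded, treated at 2-leaf stage. Formulation: non-phytotoxic solvent with surfactant. Greenhouse 13–15 days; visual 0–100 score relative to controls.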

rice = test: Test B pre-/postemergence herbicide test; assay type: in vivo, Oryza sativa; conditions: 0 = no effect, 100 = complete control, preemergence
Procedure, shortened: as §1

soybean = test: Test C pre-/postemergence herbicide test; assay type: in vivo, Glycine max; conditions: preemergence
Procedure, shortened: (§2)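 Visual injury scores run from 0 (no effect) to 100 (complete control), assessed relative to untreated controls 12 to 14 days after treatment in the greenhouse. Chemicals were formulated in a non-phytotoxic solvent mixture with surfactant and applied to soil after planting or to emerged plants at the 1- to 4-leaf stage.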

velvetleaf [2] = test: Test A pre-/postemergence herbicide test; assay type: in vivo, Abutilon theophrasti
Procedure, shortened: (§3)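 Pre: seeded sandy loam, directed soil spray, compound in non-phytotoxic solvent + surfactant. Post: 1–2-leaf plants (2–10 cm), sprayed to runoff. Greenhouse ~10 d; visual injury vs untreated, 0–100 scale.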

morningglory [3] = test: Test A pre-/postemergence herbicide test; assay type: in vivo, Ipomoea spp.
Procedure, shortened: as §3

woolly cupgrass = test: Test C pre-/postemergence herbicide test; assay type: in vivo, Eriochloa villosa; conditions: preemergence
Procedure, shortened: as §2

morningglory [4] = test: Test C pre-/postemergence herbicide test; assay type: in vivo, Ipomoea coccinea; design: key to Plant response rating, Morningglory: 0 = no effect, 100 = complete control; conditions: preemergence
Procedure, shortened: as §2

bermudagrass = test: Test C pre-/postemergence herbicide test; assay type: in vivo, Cynodon dactylon; conditions: for Plant response rating, Bermudagrass: preemergence
Procedure, shortened: as §2

goosegrass = test: Test C pre-/postemergence herbicide test; assay type: in vivo, Eleusine indica; conditions: preemergence
Procedure, shortened: as §2

[5] = 500 g ai/ha, scale 0 to 100 (0 no effect, 100 complete control), visual, 12 to 14 days
[6] = Postemergence, 500 g ai/ha, 0 to 100 scale, 0 no effect, 100 complete control
[7] = Postemergence, 2000 g ai/ha, 0 to 100 scale, 0 no effect, 100 complete control
[8] = Preemergence, 2000 g ai/ha, visual rating, 0 to 100 scale (0 no effect, 100 complete control)
[9] = preemergence, 500 g ai/ha, visual injury, 0 to 100 scale (0 no effect, 100 complete control)
[10] = 125 g ai/ha, scale 0 (no effect) to 100 (complete control), visual, 12 to 14 days

## CCc1nn(C(C)(C)C)cc1C(=O)Nc1cc(C(=O)N(CC)CC)ccc1F [Compound 223]
Velvetleaf [1]; 125 g ai/ha, 0 = no effect, 100 = complete control, preemergence
  Velvetleaf plant response rating (0 to 100 scale): 30
Velvetleaf [1]; 500 g ai/ha, visual rating, 0 = no effect, 100 = complete control, preemergence
  Plant response rating, Velvetleaf: 100
Velvetleaf [1]; 125 g ai/ha, visual rating
  Velvetleaf plant response rating: 20
Velvetleaf [1]; 500 g ai/ha, visual rating
  Velvetleaf plant response rating: 20
rice; 125 g ai/ha
  Rice plant response rating (0 to 100 scale): 0
rice; 500 g ai/ha, visual rating
  Plant response rating, Rice: 30
soybean; 62 g ai/ha, scale 0 to 100
  Plant response rating, Soybean: 0
soybean; 250 g ai/ha, scale 0-100
  Plant response rating, Soybean: 80
soybean; [5]
  Plant response rating, Soybean: 90
Velvetleaf [2]; [6]
  Velvetleaf plant response rating: 40
Velvetleaf [2]; [7]
  Plant response rating, Velvetleaf: 35
Velvetleaf [2]; [8]
  Velvetleaf plant response rating: 85
Velvetleaf [2]; [9]
  Velvetleaf plant response rating: 55
Morningglory [3]; [6]
  Morningglory plant response rating: 50
Morningglory [3]; [7]
  Plant response rating, Morningglory: 60
Morningglory [3]; [8]
  Morningglory plant response rating: 55
Morningglory [3]; [9]
  Morningglory plant response rating: 35
Woolly cupgrass; 62 g ai/ha, scale 0 to 100
  Plant response rating, Cupgrass, Woolly: 0
Woolly cupgrass; [10]
  Plant response rating, Cupgrass, Woolly: 10
Woolly cupgrass; [5]
  Plant response rating, Cupgrass, Woolly: 80
Morningglory [4]; 62 g ai/ha, scale 0 to 100
  Plant response rating, Morningglory: 0
Morningglory [4]; [10]
  Plant response rating, Morningglory: 0
Morningglory [4]; 250 g ai/ha, scale 0-100
  Plant response rating, Morningglory: 5
Morningglory [4]; [5]
  Plant response rating, Morningglory: 100
bermudagrass; 62 g ai/ha, scale 0 to 100, 0 no effect, 100 complete control
  Plant response rating, Bermudagrass: 80
bermudagrass; [10]
  Plant response rating, Bermudagrass: 80
bermudagrass; 250 g ai/ha, scale 0-100
  Plant response rating, Bermudagrass: 100
bermudagrass; Preemergence, 500 g ai/ha, scale 0 to 100, 0 no effect, 100 complete control
  Bermudagrass plant response rating: 100
goosegrass; 62 g ai/ha, scale 0 to 100
  Plant response rating, Goosegrass: 60
goosegrass; [10]
  Plant response rating, Goosegrass: 80
goosegrass; 250 g ai/ha, scale 0-100
  Plant response rating, Goosegrass: 80
goosegrass; [5]
  Plant response rating, Goosegrass: 100
